This passage reports viability, IC50 and Activity results from ChEMBL document CHEMBL5620384, “6-Regioisomeric 5,8-quinolinediones as potent CDC25 inhibitors against colorectal cancers” (Eur J Med Chem, 2023).

The subject of experiment [1] is HCT-116. Briefly: Cytotoxicity against human HCT-116 cells assessed as cell survival measured at 2 uM after 72 hrs by MTS assay relative to control. It counts as functional. The note with it: read-out: Activity. Background: Tetrazolium assays rely on reduction of a dye to a coloured formazan, in cell work by metabolically active cells.
The test system of experiment [2] is DLD-1. Briefly: Cytotoxicity against human DLD-1 cells assessed as cell survival measured at 2 uM after 72 hrs by MTS assay relative to control. It counts as functional. The note with it: read-out: Activity.
The subject of experiment [3] is MDA-MB-231. Briefly: Cytotoxicity against human MDA-MB-231 cells assessed as cell survival measured at 2 uM after 72 hrs by MTS assay relative to control. In kind it is functional. As to conditions: read-out: Activity.
For the next experiment, the system named is MCF7. The experiment in a line: Cytotoxicity against human MCF7 cells assessed as cell survival measured at 2 uM after 72 hrs by MTS assay relative to control. It counts as functional. The note with it: read-out: Activity.
A further experiment deals with U-87 MG. The experiment in a line: Cytotoxicity against human U-87 MG cells assessed as cell survival measured at 2 uM after 72 hrs by MTS assay relative to control. In kind it is functional, U-87MG ATCC. The note with it: read-out: Activity.
In experiment [4] the test system is DLD-1. Briefly: Cytotoxicity against human DLD1 cells assessed as growth inhibition after 72 hrs by MTS assay. It counts as functional, cell-based. The note with it: DLD-1, 72 h.
Experiment [5] concerns MDA-MB-231. The experiment in a line: Cytotoxicity against human MDA-MB-231 cells assessed as growth inhibition after 72 hrs by MTS assay. It counts as functional, cell-based. As to conditions: MDA-MB-231, 72 h.
For the next experiment, the system named is SW480. Briefly: Cytotoxicity against human SW480 cells assessed as cell survival measured at 2 uM after 72 hrs by MTS assay relative to control. In kind it is functional. As to conditions: read-out: Activity.
The test system of experiment [6] is HCT-116. The experiment in a line: Induction of apoptosis in human HCT-116 cells assessed as reduction in number of cells at G1 phase at 1 uM measured after 72 hrs by flow cytometry. In kind it is functional, cell-based.
Experiment [7] has as its system HCT-116. The experiment in a line: Induction of apoptosis in human HCT-116 cells assessed as reduction in number of cells at G2/M phase at 1 uM measured after 72 hrs by flow cytometry. In kind it is functional, cell-based. For orientation: In flow cytometry, cells or beads pass a laser one at a time.
Experiment [8] concerns HCT-116. Briefly: Induction of apoptosis in human HCT-116 cells assessed as reduction in number of cells at S phase at 1 uM measured after 72 hrs by flow cytometry. In kind it is functional, cell-based.
Experiment [9] has as its system HCT-116. The experiment in a line: Effect on cell cycle progression in thymidine synchronized human HCT-116 cells assessed as increase in histone H3 phosphorylation in presence of 0.2 uM of colchicine at 2 uM by Western blot analysis. It counts as functional, cell-based.
In experiment [10] the test system is HCT-116. Briefly: Reduction in mitotic exit in human HCT-116 cells at 2 uM measured upto 24 hrs by flow cytometry. In kind it is functional, cell-based.
Experiment [11] deals with HCT-116. The experiment in a line: Effect on cell cycle progression in thymidine synchronized human HCT-116 cells assessed as increase in MPM2 phosphorylation in presence of 0.2 uM of colchicine at 2 uM by Western blot analysis. It counts as functional, cell-based. For orientation: In western blotting, separated proteins are transferred to a membrane and probed.
For experiment [12], the system named is DLD-1. The experiment in a line: Induction of cell cycle arrest in human DLD-1 cells assessed as reduced progression of G2/M phase (T12) at 2 uM measured upto 24 hrs by flow cytometry. In kind it is functional, cell-based.
Experiment [13] relates to DLD-1. Briefly: Induction of cell cycle arrest in human DLD-1 cells assessed as reduced progression of S phase (T8) at 2 uM measured upto 24 hrs by flow cytometry. In kind it is functional, cell-based.
Experiment [14] deals with HCT-116. Briefly: Effect on cell cycle progression in thymidine synchronized human HCT-116 cells assessed as increase in cyclin B1 phosphorylation in presence of 0.2 uM of colchicine at 2 uM by Western blot analysis. In kind it is functional, cell-based.
Experiment [15] deals with HCT-116. Briefly: Effect on cell cycle progression in thymidine synchronized human HCT-116 cells assessed as prevention of cells entering from mitosis in presence of colchicine at 2 uM by Western blot analysis. In kind it is functional, cell-based.

Active and inactive are the calls of the source. No cut-off for these calls is given here. Some results are limits rather than exact numbers.

Usually IC50 stands for the concentration at which inhibition is half-maximal. Take `O=C1C(NCCCCN2CCOCC2)=C(Cl)C(=O)c2ncccc21`: the viability at 2 µM with HCT-116 [1] turned out to be 4.18%; with DLD-1 [2] it was 42.2%; in the experiment on MDA-MB-231 [3], 81.8%; with MCF7 it was 92.8%; with U-87 MG it was 105%. Also, the IC50 in the experiment on DLD-1 [4] amounted to 1700 nM; in the experiment on MDA-MB-231 [5], 680 nM.

In the case of `O=C1C(Cl)=C(NCCCCN2CCOCC2)C(=O)c2ncccc21`, the viability at 2 µM in the experiment on HCT-116 [1] turned out to be 53.9%; in the experiment with DLD-1 [2], 77.3%; in the experiment with MDA-MB-231 [3] it was 88.6%; in the experiment with U-87 MG, 81.5%.

On to `O=C1C(Cl)=C(NCCCN2CCOCC2)C(=O)c2ncccc21`, for which the viability at 2 µM in the experiment on SW480 came out at 105%; in the experiment with HCT-116 [1], 56.3%; in the experiment with DLD-1 [2], 67.7%; with MDA-MB-231 [3], 87.8%; in the experiment on MCF7 it was 95.1%; with U-87 MG, 76.8%.

Regarding `O=C1C(Cl)=C(NCCN2CCOCC2)C(=O)c2cc(Cl)ccc21`, the viability at 2 µM in the experiment with SW480 is 105%; in the experiment on HCT-116 [1] it was 86.5%; in the experiment with DLD-1 [2], 39.3%; in the experiment on MDA-MB-231 [3], 91.3%; with MCF7, 94%; in the experiment on U-87 MG, 98.2%.

In the case of `O=C1C(NCCCN2CCOCC2)=C(Cl)C(=O)c2ncccc21`, the viability at 2 µM in the experiment with SW480 was determined as 51.6%; in the experiment with HCT-116 [1], 2.43%; in the experiment with DLD-1 [2] it was 34.1%; with MDA-MB-231 [3], 90.4%; in the experiment with MCF7 it was 70.8%; in the experiment with U-87 MG, 51.6%. Besides, the concentration for half-maximal inhibition (IC50) with DLD-1 [4] came to 1940 nM; with MDA-MB-231 [5], 1140 nM.

Take `O=C1C(Cl)=C(NCCN2CCOCC2)C(=O)c2ccc(Cl)cc21`: the viability at 2 µM with SW480 worked out at 106%; in the experiment on HCT-116 [1], 93%; in the experiment with DLD-1 [2], 91.5%; in the experiment on MDA-MB-231 [3], 95.9%; in the experiment on MCF7, 101%; with U-87 MG it was 103%.

For `O=C1C(Cl)=C(NCCN2CCOCC2)C(=O)c2cc([N+](=O)[O-])ccc21`, the viability at 2 µM is 76.8% in the experiment on SW480; 66% in the experiment with HCT-116 [1]; 54.9% in the experiment on DLD-1 [2]; 66.8% in the experiment on MDA-MB-231 [3]; 90.5% in the experiment with MCF7; 89.1% in the experiment on U-87 MG.

For `Nc1ccc2c(c1)C(=O)C(Cl)=C(NCCN1CCOCC1)C2=O`, the viability at 2 µM in the experiment on HCT-116 [1] stood at 88.7%; in the experiment on DLD-1 [2], 90.8%; in the experiment on MDA-MB-231 [3] it was 99.7%; with MCF7, 81.4%; with U-87 MG, 104%.

Consider `O=C1C(Cl)=C(NCCN2CCOCC2)C(=O)c2cc(Br)ccc21`, for which the viability at 2 µM was found to be 99.7% in the experiment on SW480; 86.8% with HCT-116 [1]; 10.3% in the experiment with DLD-1 [2]; 80.3% with MDA-MB-231 [3]; 105% in the experiment with MCF7; 86.8% with U-87 MG.

Turning to `O=C1C(Cl)=C(NCCN2CCOCC2)C(=O)c2cc(I)ccc21`, the viability at 2 µM in the experiment on SW480 was found to be 84.3%; in the experiment with HCT-116 [1] it was 82.4%; with DLD-1 [2], 1.7%; in the experiment with MDA-MB-231 [3] it was 81.1%; with MCF7 it was 102%; with U-87 MG, 59.3%.

For the molecule `O=C1C(Cl)=C(NCCN2CCOCC2)C(=O)c2ncccc21`, the result with HCT-116 [6], with HCT-116 [7] and with HCT-116 [8] was inactive. Besides, the viability at 2 µM in the experiment with SW480 came to 93.9%; with HCT-116 [1], 61.8%; in the experiment with DLD-1 [2], 82%; in the experiment with MDA-MB-231 [3] it was 94.4%; in the experiment with MCF7 it was 79.6%; with U-87 MG it was 82%. In addition, the outcome in the experiment on HCT-116 [9], in the experiment with HCT-116 [10], with HCT-116 [11], in the experiment with DLD-1 [12], with DLD-1 [13] and in the experiment on HCT-116 [14] was Active. Further, in the experiment on HCT-116 [15], the outcome was Active. For the same molecule, the IC50 with DLD-1 [4] and in the experiment with MDA-MB-231 [5] was greater than 2000 nM in each case.

Turning to `Nc1cccc2c1C(=O)C(Cl)=C(NCCN1CCOCC1)C2=O`, the viability at 2 µM with SW480 amounted to 96%; in the experiment with HCT-116 [1], 98%; in the experiment with DLD-1 [2] it was 91.3%; in the experiment on MDA-MB-231 [3], 98%; with MCF7, 98.9%; with U-87 MG it was 95.9%.

As to `O=C1C(Cl)=C(NCCN2CCOCC2)C(=O)c2ccc([N+](=O)[O-])cc21`, the viability at 2 µM in the experiment with SW480 turned out to be 94.2%; in the experiment with HCT-116 [1], 99.7%; in the experiment on DLD-1 [2], 97.8%; in the experiment with MDA-MB-231 [3], 92.9%; with MCF7, 106%; in the experiment on U-87 MG, 106%.

For `O=C1C(Cl)=C(NCCN2CCOCC2)C(=O)c2c1cccc2[N+](=O)[O-]`, the viability at 2 µM in the experiment with SW480 amounted to 97.8%; with HCT-116 [1], 100%; in the experiment with DLD-1 [2] it was 93.2%; in the experiment with MDA-MB-231 [3], 98.2%; in the experiment on MCF7, 109%; in the experiment on U-87 MG it was 105%.

Consider `O=C1C(Cl)=C(NCCN2CCOCC2)C(=O)c2ccccc21`, for which the viability at 2 µM is 100% with SW480; 90.1% with HCT-116 [1]; 97.6% in the experiment with DLD-1 [2]; 89.8% in the experiment with MDA-MB-231 [3]; 103% with MCF7; 99% in the experiment on U-87 MG.

Take `O=C1C(Cl)=C(NCCCCCN2CCOCC2)C(=O)c2ncccc21`: the viability at 2 µM with SW480 came to 98.1%; in the experiment with HCT-116 [1] it was 59.7%; in the experiment on DLD-1 [2] it was 78.9%; in the experiment with MDA-MB-231 [3], 85.9%; in the experiment on MCF7, 84.7%; in the experiment with U-87 MG it was 79.6%.

Turning to `O=C1C(Cl)=C(NCCN2CCOCC2)C(=O)c2cnccc21`, the viability at 2 µM in the experiment with SW480 was found to be 100%; with HCT-116 [1], 65.1%; with DLD-1 [2], 75.1%; in the experiment on MDA-MB-231 [3], 85.2%; in the experiment on MCF7, 16.4%; with U-87 MG it was 89.3%.

With `O=C1C(NCCN2CCOCC2)=C(Cl)C(=O)c2c1cccc2[N+](=O)[O-]`, the viability at 2 µM was determined as 89.3% with SW480; 86.3% with HCT-116 [1]; 59.9% with DLD-1 [2]; 99.3% in the experiment on MDA-MB-231 [3]; 88.9% with MCF7; 84.6% in the experiment with U-87 MG.

For `O=C1C(Cl)=C(NCCN2CCOCC2)C(=O)c2ccc(Br)cc21`, the viability at 2 µM in the experiment with SW480 was determined as 105%; in the experiment on HCT-116 [1], 89.3%; with DLD-1 [2], 75.6%; in the experiment on MDA-MB-231 [3], 85.4%; with MCF7, 100%; in the experiment on U-87 MG it was 91.6%.

For the molecule `O=C1C(NCCCCCN2CCOCC2)=C(Cl)C(=O)c2ncccc21`, the viability at 2 µM with SW480 amounted to 31%; in the experiment with HCT-116 [1] it was 13.7%; with DLD-1 [2], 30.5%; in the experiment on MDA-MB-231 [3], 83.4%; in the experiment with MCF7, 73.9%; in the experiment on U-87 MG it was 49.8%. For the same molecule, the IC50 with DLD-1 [4] stood at 1940 nM; in the experiment with MDA-MB-231 [5], 1190 nM.

As for `O=C1C(Cl)=C(NCCN2CCOCC2)C(=O)c2ccc(I)cc21`, the viability at 2 µM was 111% in the experiment on SW480; 94.4% with HCT-116 [1]; 82.1% with DLD-1 [2]; 91% in the experiment on MDA-MB-231 [3]; 104% in the experiment with MCF7; 104% in the experiment with U-87 MG.
